# Columns and labels:
# [1] = system: platelet aggregation; test: Inhibitory effect on platelet aggregation in rabbits (ex vivo test); design: species or system rabbit; conditions: 3 animals
# Protocol: (§1) Aggregation ability was measured with a turbidimetric device (6-channel NKK Hematracer 1, model PAT-6A) according to the method of G.V.R. Born described in J. Physiology, vol. 168, p. 178 (1963). The aggregometer was adjusted in sensitivity to give light transmission vaues of 0 and 100% for PRP and PPP, respectively. With stirring at 1000 rpm, 0.3 μl of test compound solution or vehicle was added to 0.3 ml of PRP. After the mixture was kept at 37° C. for 2 minutes, to the mixture was added 3 μl PAF (Serdary Research Lab.) at the final concentration of 1.8×10^-7 M and the light transmission was recorded for 5 minutes.
# (§2) The inhibition percentage of test compounds on platelet aggregation were calculated from the following formula by measuring the maximal light transmission in the presence and absence of the test compounds. [formula]
# Test compound was orally administered to rabbit instead of adding it to PRP as in vitro test of Experiment 1, and then the citrated blood samples (9 volumes of blood+1 volume of 3.8% sodium citrate) were collected with the passage of time. Then, the blood samples were employed to determine the inhibitory effect at 1, 3, 6 and 24 hours after the administration of test compounds, respectively, according to Experiment 1.
# [2] = system: PAF-induced lethal shock; test: Effect on PAF-induced lethal shock in mice; format: in vivo, mice (male ICR); conditions: 80 μg/kg PAF i.v., 24 hours
# Protocol: The experiment was carried out according to the method of Young et al. described in Prostaglandins, vol. 30, p. […] Groups of 9 to 15 male ICR mice (Charles River) weighing 25-30 g were used. 80 μg/kg of PAF (Serdary Research Lab.) solution was intravenously administered in a lateral tail vein 1 hour after the oral administration of test compound (0.1 ml/10 g). […] Results were given as number of survivors/number of employed animals and survival rates (%) in Table 3.
# [3] = system: PAF-induced platelet aggregation; test: Inhibitory effect on PAF-induced platelet aggregation in rabbits (in vitro test); format: cell-based; conditions: Oryctolagus cuniculus, rabbit PRP, PAF 1.8×10^-7 M, 37° C., read-out: Inhibition of PAF-induced platelet aggregation, IC50
# Protocol: Blood samples to which was added 0.1 volume of 3.8% sodium citrate were collected from rabbits. Platelet rich plasma (PRP) was prepared by centrifuging the blood sample at 200×g for 10 minutes, and platelet poor plasma (PPP) was prepared by centrifuging the remaining blood sample at 1000×g for 10 minutes.
# as §1
# In all experiments, PAF was dissolved in ethanol at the concentration of 100 μg/ml, and, when used, diluted with 0.9% saline solution.
# as §2
# [4] = system: PAF-induced foot edema; test: Effect on PAF edema (PAF-induced foot edema in rats); format: in vivo, rats (male Donryu); conditions: 1 hour after PAF 5 μg s.c.
# Protocol: The experiment was carried out according to the method of Swingle et al. described in Agents and Actions, vol. 18, p. 359 (1986). Groups of five male Donryu rats weighing about 150 g were used. One hour after the oral administration of test compound (25 ml/kg), 5 μg/0.05 ml of PAF solution was subcutaneously injected to the paw of the right hind leg. The foot volume of the hind leg was measured 1 hour after the injection. The increasing ratios of foot volume before and after PAF injection were calculated.
# [5] = system: benzodiazepine receptor; conditions: well-known; cited from earlier work
# [6] = system: platelet-activating factor (PAF); conditions: literature (Japan. J. Pharmacol. 1987; EP-A 194416); cited from earlier work
# [7] = system: central system; conditions: U.S. Pat. No. 3,904,641; cited from earlier work
# [8] = 3 mg/kg p.o., 1 hour after administration
# [9] = 3 mg/kg p.o., 3 hours after administration
# [10] = 3 mg/kg p.o., 6 hours after administration
# [11] = 3 mg/kg p.o., 24 hours after administration
compound,measurement,setting,value
"Cc1nnc2n1-c1sc(CCc3ccc(CC(C)C)cc3)cc1C(c1ccccc1Cl)=NC2 [Compound A, 4-(2-chlorophenyl)-2-[2-(4-isobutylphenyl)ethyl]-9-methyl-6H-thieno[3,2-f][1,2,4]triazolo[4,3-a][1,4]diazepine]",% of inhibition,[1]; [8],97±3%
same,% of inhibition,[1]; [9],100±0%
same,% of inhibition,[1]; [10],100±0%
same,% of inhibition,[1]; [11],100±0%
same,Survival rate,[2]; 3.0 mg/kg p.o.,100.0%
same,number of survivors/number of employed animals,[2]; 3.0 mg/kg p.o.,9/9
same,IC50,[3],0.003 to 0.01 µg/mL
same,Inhibition (foot edema),[4]; 0.3 mg/kg oral,31%
same,Inhibition (foot edema),[4]; 1 mg/kg oral,51%
same,Inhibition (foot edema),[4]; 3 mg/kg oral,59%
"Cc1ccc(CCc2cc3c(s2)-n2c(C)nnc2CN=C3c2ccccc2Cl)cc1 [Compound B, 4-(2-chlorophenyl)-2-[2-(4-methylphenyl)ethyl]-9-methyl-6H-thieno[3,2-f][1,2,4]triazolo[4,3-a][1,4]diazepine]",IC50,[3],0.01 to 0.03 µg/mL
"Cc1nnc2n1-c1sc(CCCCc3ccc(CC(C)C)cc3)cc1C(c1ccccc1Cl)=NC2 [Compound C, 4-(2-chlorophenyl)-2-[4-(4-isobutylphenyl)butyl]-9-methyl-6H-thieno[3,2-f][1,2,4]triazolo[4,3-a][1,4]diazepine]",Survival rate,[2]; 3.0 mg/kg p.o.,100.0%
same,number of survivors/number of employed animals,[2]; 3.0 mg/kg p.o.,9/9
same,IC50,[3],0.03 to 0.1 µg/mL
"COc1ccc(CCc2cc3c(s2)-n2c(C)nnc2CN=C3c2ccccc2Cl)cc1 [Compound D, 4-(2-chlorophenyl)-2-[2-(4-methoxyphenyl)ethyl]-9-methyl-6H-thieno[3,2-f][1,2,4]triazolo[4,3-a][1,4]diazepine]",IC50,[3],0.01 to 0.03 µg/mL
"CCCCc1ccc(CCc2cc3c(s2)-n2c(C)nnc2CN=C3c2ccccc2Cl)cc1 [Compound E, 4-(2-chlorophenyl)-2-[2-(4-n-butylphenyl)ethyl]-9-methyl-6H-thieno[3,2-f][1,2,4]triazolo[4,3-a][1,4]diazepine]",% of inhibition,[1]; [8],100±0%
same,% of inhibition,[1]; [9],100±0%
same,% of inhibition,[1]; [10],100±0%
same,% of inhibition,[1]; [11],94±6%
same,Survival rate,[2]; 1.0 mg/kg p.o.,70.0%
same,number of survivors/number of employed animals,[2]; 1.0 mg/kg p.o.,7/10
same,Survival rate,[2]; 3.0 mg/kg p.o.,100.0%
same,number of survivors/number of employed animals,[2]; 3.0 mg/kg p.o.,10/10
same,IC50,[3],0.01 µg/mL
same,Inhibition (foot edema),[4]; 0.1 mg/kg oral,55%
same,Inhibition (foot edema),[4]; 1 mg/kg oral,78%
same,Inhibition (foot edema),[4]; 3 mg/kg oral,75%
"Cc1nnc2n1-c1sc(CCc3ccc(-c4ccccc4)cc3)cc1C(c1ccccc1Cl)=NC2 [Compound F, 4-(2-chlorophenyl)-2-[2-(4-phenylphenyl)ethyl]-9-methyl-6H-thieno[3,2-f][1,2,4]triazolo[4,3-a][1,4]diazepine]",IC50,[3],0.01 to 0.03 µg/mL
"Cc1nnc2n1-c1sc(CCc3ccccc3)cc1C(c1ccccc1Cl)=NC2 [Compound G, 4-(2-chlorophenyl)-2-(2-phenylethyl)-9-methyl-6H-thieno[3,2-f][1,2,4]triazolo[4,3-a][1,4]diazepine]",IC50,[3],0.03 to 0.1 µg/mL
"Cc1nnc2n1-c1sc(Cc3ccc(CC(C)C)cc3)cc1C(c1ccccc1Cl)=NC2 [Compound H, 4-(2-chlorophenyl)-2-(4-isobutylbenzyl)-9-methyl-6H-thieno[3,2-f][1,2,4]triazolo[4,3-a][1,4]diazepine]",IC50,[3],0.003 to 0.01 µg/mL
"Cc1nnc2n1-c1sc(CCCc3ccc(CC(C)C)cc3)cc1C(c1ccccc1Cl)=NC2 [Compound I, 4-(2-chlorophenyl)-2-[3-(4-isobutylphenyl)propyl]9-methyl-6H-thieno[3,2-f][1,2,4]triazolo[4,3-a][1,4]diazepine]",IC50,[3],0.01 µg/mL
"CCc1nnc2n1-c1sc(CCc3ccc(CC(C)C)cc3)cc1C(c1ccccc1Cl)=NC2 [Compound J, 4-(2-chlorophenyl)-9-ethyl-2-[2-(4-isobutylphenyl)ethyl]-6H-thieno[3,2-f][1,2,4]triazolo[4,3-a][1,4]diazepine]",IC50,[3],0.01 to 0.03 µg/mL
"Cc1nnc2n1-c1sc(CCc3ccc(CC(C)C)cc3)cc1C(c1ccccc1Cl)=NC2C (centres unmarked) [Compound K, 4-(2-chlorophenyl)-2-[2-(4-isobutylphenyl)ethyl]-6,9-dimethyl-6H-thieno[3,2-f][1,2,4]triazolo[4,3-a][1,4]diazepine]",IC50,[3],0.01 to 0.03 µg/mL
"CCCCc1ccc(CCc2cc3c(s2)-n2c(C)nnc2C(C)N=C3c2ccccc2Cl)cc1 (centres unmarked) [Compound L, 4-(2-chlorophenyl)-2-[2-(4-n-butylphenyl)ethyl]6,9-dimethyl-6H-thieno[3,2-f][1,2,4]triazolo[4,3-a][1,4]diazepine]",IC50,[3],0.01 to 0.03 µg/mL
"CCc1cc2c(s1)-n1c(C)nnc1CN=C2c1ccccc1Cl [Etizolam, 6-(o-chlorophenyl)-8-ethyl-1-methyl-4H-s-triazolo[3,4-c]thieno[2,3-e][1,4]diazepine, reference compound]",% of inhibition,"[1]; 10 mg/kg p.o., printed once for the 1, 3, 6, 24 hours columns",no effect
same,affinity for the benzodiazepine receptor,[5],high affinity
same,antagonistic activity on PAF,[6],exhibits antagonistic activity
same,pharmacological activities against the central nervous system,[7],antianxiety or anticonvulsant activities
same,IC50,[3],1.3 µg/mL
same,Inhibition (foot edema),[4]; 10 mg/kg oral,38%
same,Inhibition (foot edema),[4]; 25 mg/kg oral,54%

# Reference: US4820703A, “PAF-antagonistic thienotriazolodiazepine compounds and pharmaceutical uses thereof” (Yoshitomi Pharmaceutical Industries Ltd., priority 1986, dated 1989)
